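1) Cells in 96-well plates. 2) Compound, 48 h, 5 concentrations. 3) Linear interpolation between surrounding doses. 4) Unreached endpoint = highest concentration. Abbreviation: GI50, concentration required for 50% inhibition of growth.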 Active and inactive are the calls of the source. No stated cut-off is given here; in the data, active = GI50 up to about 1.1 µM and inactive = higher.
Assays:
Test in all cases: inhibition of tumour cell growth, NCI panel, 48 h
[1] = test system: 786-0
[2] = test system: A498
[3] = test system: A549
[4] = test system: ACHN
[5] = test system: BT-549
[6] = test system: CAKI-1
[7] = test system: CCRF-CEM
[8] = test system: COLO 205
[9] = test system: DU-145
[10] = test system: EKVX
[11] = test system: HCC 2998
[12] = test system: HCT-116
[13] = test system: HCT-15
[14] = test system: HOP-62
[15] = test system: HOP-92
[16] = test system: HT-29
[17] = test system: IGROV-1
[18] = test system: K562
[19] = test system: KM12
[20] = test system: LOX IMVI
[21] = test system: M14
[22] = test system: MCF7
[23] = test system: MDA-MB-231
[24] = test system: MDA-MB-435
[25] = test system: MDA-N
[26] = test system: MOLT-4
[27] = test system: Malme-3M
[28] = test system: NCI-H226
[29] = test system: NCI-H23
[30] = test system: NCI-H460
[31] = test system: NCI-H522
[32] = test system: NCI/ADR-RES
[33] = test system: OVCAR-3
[34] = test system: OVCAR-4
[35] = test system: OVCAR-5
[36] = test system: OVCAR-8
[37] = test system: PC-3
[38] = test system: RPMI-8226
[39] = test system: RXF 393
[40] = test system: SF-268
[41] = test system: SF-295
[42] = test system: SF-539
[43] = test system: SK-MEL-28
[44] = test system: SK-MEL-2
[45] = test system: SK-MEL-5
[46] = test system: SK-OV-3
[47] = test system: SNB-19
[48] = test system: SNB-75
[49] = test system: SR
[50] = test system: SW-620
[51] = test system: T47D
[52] = test system: TK-10
[53] = test system: U-251
[54] = test system: UACC-257
[55] = test system: UACC-62
[56] = test system: UO-31

Which results are given for `Cn1c2ncccc2n2c(=O)cc(O)cc12`?
GI50 [1]: > 100 µM (inactive); GI50 [2]: 64.7 µM (inactive); GI50 [3]: > 100 µM (inactive); GI50 [4]: > 100 µM (inactive); GI50 [5]: 94.4 µM (inactive); GI50 [6]: 32.4 µM (inactive); GI50 [7]: > 100 µM (inactive); GI50 [8]: 53 µM (inactive); GI50 [9]: > 100 µM (inactive); GI50 [10]: 86.1 µM (inactive); GI50 [11]: 39.4 µM (inactive); GI50 [12]: > 100 µM (inactive); GI50 [13]: 48 µM; GI50 [14]: 39.4 µM (inactive); GI50 [15]: 18.2 µM (inactive); GI50 [16]: 46.6 µM (inactive); GI50 [17]: 12.3 µM (inactive); GI50 [18]: > 100 µM (inactive); GI50 [19]: 65.8 µM (inactive); GI50 [20]: 53.6 µM (inactive); GI50 [21]: > 100 µM (inactive); GI50 [22]: 33.9 µM (inactive); GI50 [23]: 32.4 µM (inactive); GI50 [24]: 53.3 µM (inactive); GI50 [25]: 81.1 µM (inactive); GI50 [26]: 20.7 µM (inactive); GI50 [27]: 33.6 µM (inactive); GI50 [28]: 30.1 µM (inactive); GI50 [29]: > 100 µM (inactive); GI50 [30]: 60.5 µM (inactive); GI50 [31]: 44 µM (inactive); GI50 [32]: 81.5 µM (inactive); GI50 [33]: 40.8 µM (inactive); GI50 [34]: 40 µM (inactive); GI50 [35]: 88.3 µM (inactive); GI50 [36]: > 100 µM (inactive); GI50 [37]: 56.4 µM (inactive); GI50 [38]: > 100 µM (inactive); GI50 [39]: 21.1 µM (inactive); GI50 [40]: 54.2 µM (inactive); GI50 [41]: 97.9 µM (inactive); GI50 [42]: > 100 µM (inactive); GI50 [43]: 89.3 µM (inactive); GI50 [44]: 39.6 µM (inactive); GI50 [45]: > 100 µM (inactive); GI50 [46]: > 100 µM (inactive); GI50 [47]: > 100 µM (inactive); GI50 [48]: 24.4 µM (inactive); GI50 [49]: > 100 µM (inactive); GI50 [50]: 82.4 µM (inactive); GI50 [51]: 24.1 µM (inactive); GI50 [52]: 45 µM (inactive); GI50 [53]: > 100 µM (inactive); GI50 [54]: > 100 µM (inactive); GI50 [55]: 77.3 µM (inactive); GI50 [56]: 47.2 µM (inactive)

— ChEMBL document CHEMBL1201862, “PubChem BioAssay data set” (2004)
